Literature values in patent publication US20210276967A1 (OSPEDALE SAN RAFFAELE S.R.L., priority 2018, published 2021).

System: HBV
Settings: Phase 1b clinical studies; cited from earlier work

Structure (SMILES): O=C(Nc1cc(F)c(F)c(F)c1)c1ccc(F)c(S(=O)(=O)N2CCC(O)CC2)c1 [NVR3-778]
- reduction in HBV DNA: significant reduction
- reduction in serum HBV RNA: significant reduction
